# In patent US8945921B2, “Modulating the production of neurons and/or oligodendrocytes from white matter progenitor cells” (Cornell Research Foundation, Inc., priority 2003, dated 2015):
# System: adult human white matter progenitor cells (WMPCs)
# Assay: Tyrosine phosphatase inhibition: oligodendrocyte differentiation of cultured WMPCs (A2B5/O4/BrdU immunocytochemistry)
# Assay type: cell-based
# Description: WMPCs were distributed onto 12-well plates coated with poly-L-ornithine and fibronectin at 5×10^4 cells/ml in DMEM/F12/N1 supplemented with 10 ng/ml bFGF (Sigma), 10 ng/ml PDGF-AA (Sigma), and 2 ng/ml NT3 (R&D Systems). Stock solutions of 1 μM bpV(phen) (potassium bisperoxo (1,10-phenanthroline) oxovanadate (V); Calbiochem) were prepared before each use. Cells were exposed to concentrations of 0, 1, 5, 10, and 25 ng/ml of bV(phen) immediately upon plating, and every 2 days thereafter for 7 day in vitro.
# Cultures were exposed continuously to 10 μg/ml BrdU beginning 24 hours before fixation. After 7 days in vitro, A2B5 and O4 were immunolabeled as previously described (Roy et al., “Identification, Isolation, and Promoter-defined Separation of Mitotic Oligodendrocyte Progenitor Cells from the Adult Human Subcortical White Matter,” J. Neurosci 19:9986-95 (1999), which is hereby incorporated by reference in its entirety). For multiple antigen labeling, O4 and A2B5 were localized on live cells that were then fixed with 4% paraformaldehyde and immunostained for BrdU. O4 supernatant was used at a dilution of 1:100 and monoclonal antibody A2B5 supernatant (clone 105, American Type Culture Collection) was used in a 1:1 ratio with DMEM/F12/N, both for 40 minutes at 4° C. Rat anti-BrdU antibody (Harlan) was used at a dilution of 1:200. Fixed cultures were counterstained with DAPI (10 ng ml; Molecular Probes). The number of A2B5 and O4 stained and unstained cells were counted in 10 randomly chosen fields at each dosage level, from individual replicate samples (n=4). Statistical significance was assessed by one-way repeated measures analysis of variance (ANOVA), followed by Tukey's multiple comparisons test (GraphPad Prism 3.0, p<0.05).
# Due to the high expression of the tyrosine phosphatase receptor RTPβ/ζ in WMPCs, the effect of tyrosine phosphatase inhibition on the differentiation of WMPCs was assessed. bpV(phen), a known potent inhibitor of tyrosine phosphatase activity, was used to induce inhibition (Posner et al., “Peroxovanadium Compounds. A New Class of Potent Phosphotyrosine Phosphatase Inhibitors Which Are Insulin Mimetics,” J Biol Chem 269: 4596-4604 (1994); Bevan et al., “Selective Activation of the Rat Hepatic Endosomal Insulin Receptor Kinase. Role for the Endosome in Insulin Signaling,” J Biol Chem 270: 10784-10791 (1995); Faure et al., “Arrest at The G2/M Transition of the Cell Cycle by Protein-Tyrosine Phosphatase Inhibition Studies on a Neuronal and a Glial Cell Line,” J Cell Biochem 59: 389-401 (1995), which are hereby incorporated by reference in their entirety). […] Statistical significance was first detected at 1 ng/ml bpV(phen) in the A2B5 positive population and 10 ng ml bpV(phen) in the O4 positive population. The O4/A2B5 ratio rose drastically from under 10 percent to 70 percent in response to 25 ng/ml treatment with bpV(phen) (FIG. 1E).
# [1] = 7 days in vitro, doses 0, 1, 5, 10, 25 ng/ml
# [2] = between dosage levels 0-25 ng/ml, 7 days in vitro
compound,measurement,setting,value
"O.O.O.OO.OO.[K+].[OH-].[V].c1cnc2c(c1)ccc1cccnc12 [bpV(phen), potassium bisperoxo (1,10-phenanthroline) oxovanadate (V)]",percentage of O4+ cells,"25 ng ml, 7 days in vitro, n=4 patients, untreated 20±8.4%",54±17.6%
same,percentage of progenitor A2B5+ cells,"25 ng/ml, 7 days in vitro, n=4 patients, untreated 15±2.2%",4±0.5%
same,O4/A2B5 ratio,"25 ng/ml, 7 days in vitro, untreated under 10 percent",70%
same,"concentration at which statistical significance was first detected, A2B5 positive population",[1],1 ng/mL
same,"concentration at which statistical significance was first detected, O4 positive population",[1],10 ng·mL
same,effect on WMPC expansion and differentiation,WMPCs exposed to the RTP inhibitor,ceased expansion and differentiated as oligodendrocytes
same,number of A2B5+ BrdU+ cells,[2],unchanged
same,total cell number,[2],unchanged
